{"source": "ChEMBL document CHEMBL2073981", "about": "“Differential regulation of multidrug resistance-associated protein 2 (MRP2) and cytochromes P450 2B1/2 and 3A1/2 in phenobarbital-treated hepatocytes” (Biochem Pharmacol, 2002)", "key": {"[1]": {"biological_target": "T1, ATP-binding cassette sub-family C member 2 (Rattus norvegicus, UniProt Q63120)", "T1 sequence (Q63120 whole entry)": "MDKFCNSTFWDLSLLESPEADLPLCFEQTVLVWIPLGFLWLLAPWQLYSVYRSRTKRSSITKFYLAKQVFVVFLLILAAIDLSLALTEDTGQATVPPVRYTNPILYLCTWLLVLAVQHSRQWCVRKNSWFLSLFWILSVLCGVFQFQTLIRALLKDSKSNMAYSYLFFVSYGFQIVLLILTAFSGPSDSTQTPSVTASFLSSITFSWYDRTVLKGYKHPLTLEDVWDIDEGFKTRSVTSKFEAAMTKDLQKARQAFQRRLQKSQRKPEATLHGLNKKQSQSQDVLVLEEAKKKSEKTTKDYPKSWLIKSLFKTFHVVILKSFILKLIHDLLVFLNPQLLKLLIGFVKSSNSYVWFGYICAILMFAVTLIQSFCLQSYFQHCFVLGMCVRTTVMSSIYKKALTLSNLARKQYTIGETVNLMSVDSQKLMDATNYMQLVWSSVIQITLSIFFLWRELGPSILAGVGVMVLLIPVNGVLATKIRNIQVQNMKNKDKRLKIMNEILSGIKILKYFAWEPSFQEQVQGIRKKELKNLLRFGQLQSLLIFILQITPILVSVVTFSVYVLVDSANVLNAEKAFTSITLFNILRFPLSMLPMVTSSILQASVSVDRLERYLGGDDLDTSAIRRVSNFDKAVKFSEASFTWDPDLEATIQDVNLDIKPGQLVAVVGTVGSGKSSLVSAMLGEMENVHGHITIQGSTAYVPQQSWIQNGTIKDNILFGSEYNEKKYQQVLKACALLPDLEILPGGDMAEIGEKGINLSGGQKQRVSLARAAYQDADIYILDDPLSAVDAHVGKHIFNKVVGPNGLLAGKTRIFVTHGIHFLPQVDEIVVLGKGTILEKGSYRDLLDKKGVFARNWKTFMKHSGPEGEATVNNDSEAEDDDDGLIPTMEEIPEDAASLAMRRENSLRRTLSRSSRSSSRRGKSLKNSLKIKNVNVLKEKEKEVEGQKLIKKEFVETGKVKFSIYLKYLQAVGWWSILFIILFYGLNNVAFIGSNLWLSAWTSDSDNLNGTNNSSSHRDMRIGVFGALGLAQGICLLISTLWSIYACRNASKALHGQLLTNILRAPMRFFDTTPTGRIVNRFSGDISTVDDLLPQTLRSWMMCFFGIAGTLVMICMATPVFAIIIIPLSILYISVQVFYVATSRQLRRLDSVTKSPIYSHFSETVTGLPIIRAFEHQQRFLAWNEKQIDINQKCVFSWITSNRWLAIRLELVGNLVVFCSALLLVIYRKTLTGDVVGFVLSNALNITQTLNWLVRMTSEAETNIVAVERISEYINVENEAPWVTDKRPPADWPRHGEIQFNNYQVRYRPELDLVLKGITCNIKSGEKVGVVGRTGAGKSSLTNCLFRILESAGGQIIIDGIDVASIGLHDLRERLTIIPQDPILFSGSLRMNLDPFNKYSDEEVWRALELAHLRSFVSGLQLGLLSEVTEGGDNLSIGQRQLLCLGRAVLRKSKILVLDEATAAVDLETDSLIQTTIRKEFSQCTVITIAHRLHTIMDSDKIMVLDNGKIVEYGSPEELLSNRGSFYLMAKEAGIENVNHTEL", "assay": "TP_TRANSPORTER: Northern blot in vivo SD rat, liver", "type": "functional, organism-based, Sprague-Dawley"}, "[2]": {"biological_target": "Multidrug resistance protein 1a (Rattus norvegicus) (UniProt Q6PSM0)", "sequence (Q6PSM0 as listed by the source)": "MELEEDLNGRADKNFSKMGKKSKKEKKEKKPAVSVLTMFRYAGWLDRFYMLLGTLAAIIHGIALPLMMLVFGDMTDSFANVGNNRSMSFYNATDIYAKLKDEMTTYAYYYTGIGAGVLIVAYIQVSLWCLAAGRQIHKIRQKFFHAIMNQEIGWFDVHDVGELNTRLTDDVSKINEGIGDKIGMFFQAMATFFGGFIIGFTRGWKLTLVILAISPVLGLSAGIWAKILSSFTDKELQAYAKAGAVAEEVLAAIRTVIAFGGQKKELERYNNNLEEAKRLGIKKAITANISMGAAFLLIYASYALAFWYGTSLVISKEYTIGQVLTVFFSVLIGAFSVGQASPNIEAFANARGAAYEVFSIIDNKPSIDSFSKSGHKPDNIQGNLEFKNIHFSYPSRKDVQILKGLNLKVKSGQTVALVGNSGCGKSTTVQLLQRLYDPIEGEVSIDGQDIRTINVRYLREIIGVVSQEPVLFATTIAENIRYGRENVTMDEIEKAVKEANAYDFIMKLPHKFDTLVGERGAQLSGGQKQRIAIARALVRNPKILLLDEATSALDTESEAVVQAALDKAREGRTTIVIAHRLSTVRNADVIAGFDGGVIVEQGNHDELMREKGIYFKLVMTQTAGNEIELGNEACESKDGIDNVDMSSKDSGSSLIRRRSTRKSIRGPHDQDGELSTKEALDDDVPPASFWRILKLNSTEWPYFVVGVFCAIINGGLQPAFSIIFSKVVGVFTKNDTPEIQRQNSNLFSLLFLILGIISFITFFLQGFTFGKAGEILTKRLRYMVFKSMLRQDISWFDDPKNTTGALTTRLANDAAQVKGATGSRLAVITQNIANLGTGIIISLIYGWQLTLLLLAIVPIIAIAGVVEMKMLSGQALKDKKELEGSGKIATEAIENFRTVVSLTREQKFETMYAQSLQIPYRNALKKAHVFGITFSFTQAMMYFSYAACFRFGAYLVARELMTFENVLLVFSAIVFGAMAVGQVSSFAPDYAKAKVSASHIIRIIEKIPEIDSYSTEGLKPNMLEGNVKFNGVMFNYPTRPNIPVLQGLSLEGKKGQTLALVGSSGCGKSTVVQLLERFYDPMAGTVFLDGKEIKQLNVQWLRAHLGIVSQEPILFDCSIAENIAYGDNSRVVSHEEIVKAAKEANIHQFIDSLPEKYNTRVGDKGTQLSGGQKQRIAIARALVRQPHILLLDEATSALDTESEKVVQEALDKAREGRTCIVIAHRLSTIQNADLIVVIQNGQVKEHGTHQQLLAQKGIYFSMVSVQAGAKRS", "assay": "(§1) TP_TRANSPORTER: Northern blot in vitro, primary hepatocytes", "type": "functional, cell-based", "conditions": "Hepatocyte"}, "[3]": {"biological_target": "T2, ATP-binding cassette sub-family C member 2 (Homo sapiens, UniProt Q92887)", "T2 sequence (Q92887 whole entry)": "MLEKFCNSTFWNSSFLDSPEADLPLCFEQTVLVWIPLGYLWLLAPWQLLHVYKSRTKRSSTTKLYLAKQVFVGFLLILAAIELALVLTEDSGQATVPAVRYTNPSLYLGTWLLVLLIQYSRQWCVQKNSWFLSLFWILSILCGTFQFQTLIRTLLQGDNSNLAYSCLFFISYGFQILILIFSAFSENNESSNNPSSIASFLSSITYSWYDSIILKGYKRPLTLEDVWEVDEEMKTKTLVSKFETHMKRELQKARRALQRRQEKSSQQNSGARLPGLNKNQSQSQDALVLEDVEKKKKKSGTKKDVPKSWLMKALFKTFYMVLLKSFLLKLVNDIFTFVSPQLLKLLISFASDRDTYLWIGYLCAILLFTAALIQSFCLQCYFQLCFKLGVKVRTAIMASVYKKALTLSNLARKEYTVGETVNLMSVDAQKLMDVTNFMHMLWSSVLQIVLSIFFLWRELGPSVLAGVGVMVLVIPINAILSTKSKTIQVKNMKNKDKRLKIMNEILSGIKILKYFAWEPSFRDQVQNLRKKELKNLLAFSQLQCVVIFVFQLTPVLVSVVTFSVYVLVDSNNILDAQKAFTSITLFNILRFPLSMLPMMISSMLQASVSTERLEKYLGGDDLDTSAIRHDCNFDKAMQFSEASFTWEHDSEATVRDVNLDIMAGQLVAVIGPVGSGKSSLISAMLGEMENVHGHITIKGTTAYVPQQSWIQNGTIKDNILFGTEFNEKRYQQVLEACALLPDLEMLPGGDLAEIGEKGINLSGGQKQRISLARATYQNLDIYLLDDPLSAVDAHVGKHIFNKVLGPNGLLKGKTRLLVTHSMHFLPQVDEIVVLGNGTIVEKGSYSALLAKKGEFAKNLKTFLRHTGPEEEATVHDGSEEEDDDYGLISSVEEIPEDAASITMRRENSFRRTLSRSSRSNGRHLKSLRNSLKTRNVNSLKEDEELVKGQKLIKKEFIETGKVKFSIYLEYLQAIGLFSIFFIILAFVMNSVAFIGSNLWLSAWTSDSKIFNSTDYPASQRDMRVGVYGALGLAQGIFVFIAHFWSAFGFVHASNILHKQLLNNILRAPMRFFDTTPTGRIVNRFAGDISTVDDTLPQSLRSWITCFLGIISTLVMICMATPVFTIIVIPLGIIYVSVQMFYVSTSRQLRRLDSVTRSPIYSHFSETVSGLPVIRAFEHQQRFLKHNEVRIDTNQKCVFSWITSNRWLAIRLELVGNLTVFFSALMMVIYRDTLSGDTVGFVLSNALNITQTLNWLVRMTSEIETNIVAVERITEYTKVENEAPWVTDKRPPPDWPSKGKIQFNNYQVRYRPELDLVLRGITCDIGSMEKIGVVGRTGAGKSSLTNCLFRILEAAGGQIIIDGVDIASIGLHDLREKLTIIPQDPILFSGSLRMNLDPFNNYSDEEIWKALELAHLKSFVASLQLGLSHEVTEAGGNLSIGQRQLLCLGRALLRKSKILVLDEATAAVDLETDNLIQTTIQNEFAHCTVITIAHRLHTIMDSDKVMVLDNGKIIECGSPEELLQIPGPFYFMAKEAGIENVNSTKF", "assay": "as §1", "type": "functional, cell-based, Hepatocyte"}, "[4]": {"biological_target": "T1, ATP-binding cassette sub-family C member 2", "assay": "as §1", "type": "functional, cell-based, Hepatocyte"}, "[5]": {"biological_target": "T2, ATP-binding cassette sub-family C member 2", "assay": "(§2) TP_TRANSPORTER: Western in vitro, primary hepatocytes", "type": "functional, cell-based, Hepatocyte"}, "[6]": {"biological_target": "T1, ATP-binding cassette sub-family C member 2", "assay": "as §2", "type": "functional, cell-based, Hepatocyte"}}}
{"smiles": "CCC1(c2ccccc2)C(=O)NC(=O)NC1=O", "note": "[PHENOBARBITAL]", "values": [{"measurement": "Activity", "setting": "[1]", "value": "is not an inducer [-]"}, {"measurement": "Activity", "setting": "[2]", "value": "is not an inducer [-]"}, {"measurement": "Activity", "setting": "[3]", "value": "inducer [+]"}, {"measurement": "Activity", "setting": "[4]", "value": "inducer [+]"}, {"measurement": "Activity", "setting": "[5]", "value": "inducer [+]"}, {"measurement": "Activity", "setting": "[6]", "value": "inducer [+]"}]}
